In the RepoRT retention time repository (doi:10.1016/j.foodchem.2021.129757) one finds LC retention time data, which are given here for 22 compounds.

The first series can be described thus: RP, 50 × 0.5 mm, 2.7 µm, 35 °C, 0.01 mL/min, estimated dead time 0.62 min; A: water + 0.1% formic acid, pH 3; B: acetonitrile + 0.1% formic acid, pH 3; gradient (min/%B) 0/5 12/95 14/95 16/5. The conditions noted are these: stereoisomer not certain.
Take `CCCCCCCCCCCCCCCCCc1cc(O)cc(O)c1` [Alkylresorcinol C17:0]: the LC retention time was 13.3 min.

`COc1cc(CC2COC(c3ccc(O)c(OC)c3)C2CO)ccc1O` (single isomer, unassigned; (+)) [(+)-Lariciresinol]: the LC retention time was 5.08 min. The same measure, in the same setting: the same measure for `OCCc1ccc(O)c(O)c1` [Hydroxytyrosol]: 1.67 min; for `COc1c(O)cc(C(=O)O)cc1OS(=O)(=O)O` [4-O-methylgallic acid 3-O-sulfate]: 1.84 min. As for `O=c1oc2cc(O)ccc2c2ccc(O)cc12` [Urolithin A], the LC retention time is 5.33 min. The same measure, in the same setting: the same measure for `CC1CCC2(C(=O)O)CCC3(C)C(=CCC4C5(C)CCC(O)C(C)(C)C5CCC43C)C2C1C` (centres undefined) [Ursolic acid]: 11.2 min.

The next series in a line: Other, Phenomenex Kinetex PFP, 100 × 4.6 mm, 5 µm, 45 °C, 0.6 mL/min, estimated dead time 1.8 min; A: water + 0.1% trifluoroacetic acid, pH 2; B: methanol; gradient (min/%B) 0/40 20/72 21/40. The note with it: stereoisomer not certain.
Turning to `COc1cc(C2C3C=C(C4Oc5cc(O)cc(O)c5C(=O)C4O)C4C2COC4(O)C3=O)ccc1O` (centres undefined) [Silydianin], the LC retention time is 21.5 min. Same read-out and setting: the same measure for `O=C(O)C=Cc1ccc(O)cc1O` [2,4-Dihydroxycinnamic acid]: 5.73 min; for `O=c1c(OC2OC(CO)C(O)C(O)C2O)c(-c2ccc(O)c(O)c2)oc2cc(O)cc(O)c12` (centres undefined) [Quercetin-3-O-glucoside]: 9.23 min; for `COc1cc(C2Oc3c(O)cc(-c4oc5cc(O)cc(O)c5c(=O)c4O)cc3C2CO)ccc1O` (centres undefined) [2,3-Dehydrosilychristin A]: 17.5 min. Still for that read-out and setting: the same measure for `Cc1ccc(O)c(OS(=O)(=O)O)c1` [4-Methylcatechol monosulfate]: 4.92 min. Still for that read-out and setting: the same measure for `Cc1ccc(O)c(O)c1` [4-methylcatechol]: 6.24 min. Turning to `O=c1c(OC2OC(CO)C(O)C(O)C2O)c(-c2ccc(OS(=O)(=O)O)c(O)c2)oc2cc(O)cc(O)c12` (centres undefined) [Isoquercitrin 4-O-sulfate], the LC retention time was 7.77 min. On the same count and under the same terms, the value for `COc1cc(C2Oc3c(O)cc(C4Oc5cc(O)cc(O)c5C(=O)C4O)cc3C2CO)ccc1O` (centres undefined) [Silychristin] was 10.3 min; that for `O=c1cc(-c2ccc(OS(=O)(=O)O)c(O)c2)oc2cc(OS(=O)(=O)O)cc(O)c12` [Luteolin 7,4-disulfate] was 11.9 min.

Turning to `O=C1c2c(O)cc(O)cc2OC(c2cc(O)c(OS(=O)(=O)O)c(O)c2)C1O` (centres undefined) [Ampelopsin-4-O-sulfate], the LC retention time is 7.54 min. Turning to `Oc1cc(O)cc(O)c1` [Phloroglucinol], the LC retention time was 2.9 min. Take `O=c1cc(-c2ccc(OS(=O)(=O)O)c(O)c2)oc2cc(O)cc(O)c12` [Luteolin 4-sulfate]: the LC retention time was 17.1 min.

For the compound `O=c1cc(-c2ccc(O)c(OS(=O)(=O)O)c2)oc2cc(O)cc(O)c12` [Luteolin 3-sulfate], the LC retention time is 16.4 min.

For the compound `O=c1c(O)c(-c2cc(O)c(OS(=O)(=O)O)c(O)c2)oc2cc(O)cc(O)c12` [Myricetin 4-O-sulfate], the LC retention time is 15.2 min.

Another series is described as follows: RP, Phenomenex Kinetex EVO C18, 100 × 2.1 mm, 2.6 µm, 40 °C, 0.4 mL/min, estimated dead time 0.55 min; A: water + 0.2% formic acid; B: acetonitrile + 0.2% formic acid; gradient (min/%B) 0/5 0.5/5 7/95 8/95 8.5/5 12/5. The note with it: stereoisomer not certain.
`O=c1oc2cc(O)ccc2c2ccc(O)cc12` [Urolithin A]: the LC retention time was 5.59 min.

The nature of a further series: RP, Phenomenex Synergi Hydro-RP, 150 × 2 mm, 4 µm, 30 °C, 0.5 mL/min, estimated dead time 0.6 min; A: water + 0.1% formic acid, pH 3; B: acetonitrile + 0.1% formic acid, pH 3; gradient (min/%B) 0/5 1/5 35/45 40/100 45/100. The note with it: stereoisomer not certain.
Regarding `COc1cc(CC2COC(c3ccc(O)c(OC)c3)C2CO)ccc1O` (single isomer, unassigned; (+)) [(+)-Lariciresinol], the LC retention time is 19.4 min.

In the case of `COc1c(O)cc(C(=O)O)cc1OS(=O)(=O)O` [4-O-methylgallic acid 3-O-sulfate], the LC retention time is 5.32 min. With `O=S(=O)(O)Oc1ccccc1O` [Catechol O-sulfate], the LC retention time is 4.29 min.

A further series in a line: RP, Phenomenex Luna Omega Polar C18, 100 × 2.1 mm, 1.6 µm, 40 °C, 0.5 mL/min, estimated dead time 0.44 min; A: water + 0.5% formic acid; B: acetonitrile + 0.5% formic acid; gradient (min/%B) 0/5 3/50 3.1/100 5/100 5.1/5 7/5. The conditions noted are these: stereoisomer not certain.
Take `CCCCCCCCCCCCCCCCCc1cc(O)cc(O)c1` [Alkylresorcinol C17:0]: the LC retention time was 4.6 min.

`COc1cc(CC2COC(c3ccc(O)c(OC)c3)C2CO)ccc1O` (single isomer, unassigned; (+)) [(+)-Lariciresinol]: the LC retention time is 2.68 min.

Consider `COc1c(O)cc(C(=O)O)cc1OS(=O)(=O)O` [4-O-methylgallic acid 3-O-sulfate], for which the LC retention time was 1.41 min. Take `O=c1oc2cc(O)ccc2c2ccc(O)cc12` [Urolithin A]: the LC retention time was 3.08 min. The same measure, in the same setting: the same measure for `CCCCCCCCCCCCCCCCCCCCCCCCCc1cc(O)cc(O)c1` [Alkylresorcinol C25:0]: 5.12 min; for `CC1CCC2(C(=O)O)CCC3(C)C(=CCC4C5(C)CCC(O)C(C)(C)C5CCC43C)C2C1C` (centres undefined) [Ursolic acid]: 1.8 min.

Another series in a line: RP, Phenomenex Luna C18, 150 × 4.6 mm, 3 µm, 25 °C, 0.5 mL/min, estimated dead time 3.2 min; A: water + 0.1% formic acid, pH 3; B: acetonitrile + 0.1% formic acid, pH 3; gradient (min/%B) 0/0 30/30 35/40 50/80 52/80 60/0 65/0. The conditions noted are these: stereoisomer not certain.
As to `COc1cc(CC2COC(c3ccc(O)c(OC)c3)C2CO)ccc1O` (single isomer, unassigned; (+)) [(+)-Lariciresinol], the LC retention time is 32.2 min. On the same count and under the same terms, the same measure for `OCCc1ccc(O)c(O)c1` [Hydroxytyrosol]: 8.55 min.

In the case of `COc1c(O)cc(C(=O)O)cc1OS(=O)(=O)O` [4-O-methylgallic acid 3-O-sulfate], the LC retention time is 11.7 min. Same read-out and setting: the same measure for `O=c1oc2cc(O)ccc2c2ccc(O)cc12` [Urolithin A]: 35.8 min; for `O=S(=O)(O)Oc1ccccc1O` [Catechol O-sulfate]: 18.2 min.

Another series is described as follows: RP, Waters ACQUITY UPLC HSS T3, 100 × 2.1 mm, 50 °C; A: water + 0.1% formic acid, pH 3; B: 30% methanol + 70% acetonitrile + 0.1% formic acid, pH 3; gradient (min/%B) 0/5 1/8 2/15 3/40 4/70 4.5/100 5/100 6.4/100 6.6/5 6.8/5 7/5. The conditions noted are these: stereoisomer not certain.
Turning to `O=C(O)C=Cc1ccc(O)cc1O` [2,4-Dihydroxycinnamic acid], the LC retention time was 3.08 min. As to `O=S(=O)(O)Oc1ccccc1O` [Catechol O-sulfate], the LC retention time stood at 2.26 min.

Another series in a line: RP, Phenomenex Luna Omega Polar C18, 100 × 2.1 mm, 1.6 µm, 40 °C, 0.5 mL/min, estimated dead time 0.44 min; A: water + 0.1% formic acid + 10 mM ammonium formate; B: acetonitrile; gradient (min/%B) 0/5 8/20 10/100 12/100 12.1/5 14/5. The note with it: stereoisomer not certain.
On to `CCCCCCCCCCCCCCCCCc1cc(O)cc(O)c1` [Alkylresorcinol C17:0], for which the LC retention time is 11.1 min. Consider `COc1cc(CC2COC(c3ccc(O)c(OC)c3)C2CO)ccc1O` (single isomer, unassigned; (+)) [(+)-Lariciresinol], for which the LC retention time was 9.31 min.
